Measured values from patent publication US20240150290A1, “HETEROCYCLIC P2Y14 RECEPTOR ANTAGONISTS” (priority 2021, published 2024).
Values after ≈ are worked out from the molar mass of the structure shown. Where two headings read alike, the source gives them in different places.

Tests used:
hERG ion channel = hERG ion channel (Homo sapiens, UniProt Q12809); test: hERG ion channel block, patch clamp assay
hP2Y14R = biological target: T1, hP2Y14R (Homo sapiens, UniProt Q15391); test: Inhibition of fluorescent antagonist binding in whole hP2Y14R-expressing CHO cells (flow cytometry)
T1 construct: expressed in transfected cells; host or cells: CHO cells
T1 sequence (Q15391 1-338): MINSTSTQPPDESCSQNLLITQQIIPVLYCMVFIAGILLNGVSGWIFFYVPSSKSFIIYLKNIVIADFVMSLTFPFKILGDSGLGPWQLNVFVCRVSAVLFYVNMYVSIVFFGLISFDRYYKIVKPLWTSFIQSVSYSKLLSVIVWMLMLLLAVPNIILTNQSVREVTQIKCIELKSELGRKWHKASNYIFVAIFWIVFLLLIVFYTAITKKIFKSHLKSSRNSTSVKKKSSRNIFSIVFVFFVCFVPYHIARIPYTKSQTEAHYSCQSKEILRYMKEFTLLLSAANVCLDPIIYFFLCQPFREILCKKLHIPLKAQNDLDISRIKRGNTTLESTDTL

mP2Y14R = biological target: T2, mP2Y14R (Mus musculus, UniProt Q9ESG6); test: cell-based; settings: for affinity at the mP2Y14R vs the human homologue: comparison of species, in words
T2 sequence (Q9ESG6 1-338): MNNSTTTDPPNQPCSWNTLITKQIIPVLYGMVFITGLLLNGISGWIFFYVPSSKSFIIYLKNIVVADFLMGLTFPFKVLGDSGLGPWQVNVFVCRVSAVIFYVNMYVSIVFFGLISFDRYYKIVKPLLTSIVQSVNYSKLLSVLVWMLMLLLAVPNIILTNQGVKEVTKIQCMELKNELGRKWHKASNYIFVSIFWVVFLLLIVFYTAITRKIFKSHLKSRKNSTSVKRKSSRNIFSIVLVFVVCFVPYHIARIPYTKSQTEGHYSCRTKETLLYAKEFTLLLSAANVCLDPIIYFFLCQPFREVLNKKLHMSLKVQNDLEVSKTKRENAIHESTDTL
Description: Desirably, receptor affinity is maintained across species, facilitating performance in in vivo preclinical testing in small animals, with the mouse being the most commonly used species in initial evaluation.

PLE = test: Esterase cleavage of prodrugs in the presence of PLE; type: in vitro ADME; settings: 37° C.; for Percent cleavage at 72 h: pH 7.3, PLE
[1] = test system: allergen-induced airway inflammation; test: Ovalbumin/Aspergillus mouse asthma model (BALF leukocytes); settings: 20 μmol/kg; for eosinophil counts in the BALF: i.p. prior to allergen challenge, two days post-challenge
[2] = Aqueous solubility, pION method
[3] = HPLC-based lipophilicity (Log D7.4); settings: pH 7.4
[4] = test system: CCI-induced mechano-allodynia; test: Chronic constriction injury (CCI) mouse model of neuropathic pain; settings: 10 μmol/kg, i.p., day 7 post-injury
[5] = Table 6, fluorescent hP2Y14R antagonist (3), read-out: hP2Y14R, IC50
[6] = read-out: mP2Y14R, IC50, Table 6, whole mP2Y14R-HEK cells, 200 nM of 3, mean ± SEM, n = 3-6
[7] = Table 2, whole hP2Y14R-CHO cells, 20 nM fluorescent antagonist 3, mean+SEM, n = 3-6, read-out: IC50
[8] = Table 1, fluorescent antagonist 2, hP2Y14R-CHO cells, 3-4 determinations, read-out: IC50, hP2Y14R (μM, mean ± SEM)
[9] = read-out: mP2Y14R, IC50, Table 2, tracer 2 (20 nM, 45 min), HEK293 cells

Sequence of hERG ion channel (Q12809 whole entry): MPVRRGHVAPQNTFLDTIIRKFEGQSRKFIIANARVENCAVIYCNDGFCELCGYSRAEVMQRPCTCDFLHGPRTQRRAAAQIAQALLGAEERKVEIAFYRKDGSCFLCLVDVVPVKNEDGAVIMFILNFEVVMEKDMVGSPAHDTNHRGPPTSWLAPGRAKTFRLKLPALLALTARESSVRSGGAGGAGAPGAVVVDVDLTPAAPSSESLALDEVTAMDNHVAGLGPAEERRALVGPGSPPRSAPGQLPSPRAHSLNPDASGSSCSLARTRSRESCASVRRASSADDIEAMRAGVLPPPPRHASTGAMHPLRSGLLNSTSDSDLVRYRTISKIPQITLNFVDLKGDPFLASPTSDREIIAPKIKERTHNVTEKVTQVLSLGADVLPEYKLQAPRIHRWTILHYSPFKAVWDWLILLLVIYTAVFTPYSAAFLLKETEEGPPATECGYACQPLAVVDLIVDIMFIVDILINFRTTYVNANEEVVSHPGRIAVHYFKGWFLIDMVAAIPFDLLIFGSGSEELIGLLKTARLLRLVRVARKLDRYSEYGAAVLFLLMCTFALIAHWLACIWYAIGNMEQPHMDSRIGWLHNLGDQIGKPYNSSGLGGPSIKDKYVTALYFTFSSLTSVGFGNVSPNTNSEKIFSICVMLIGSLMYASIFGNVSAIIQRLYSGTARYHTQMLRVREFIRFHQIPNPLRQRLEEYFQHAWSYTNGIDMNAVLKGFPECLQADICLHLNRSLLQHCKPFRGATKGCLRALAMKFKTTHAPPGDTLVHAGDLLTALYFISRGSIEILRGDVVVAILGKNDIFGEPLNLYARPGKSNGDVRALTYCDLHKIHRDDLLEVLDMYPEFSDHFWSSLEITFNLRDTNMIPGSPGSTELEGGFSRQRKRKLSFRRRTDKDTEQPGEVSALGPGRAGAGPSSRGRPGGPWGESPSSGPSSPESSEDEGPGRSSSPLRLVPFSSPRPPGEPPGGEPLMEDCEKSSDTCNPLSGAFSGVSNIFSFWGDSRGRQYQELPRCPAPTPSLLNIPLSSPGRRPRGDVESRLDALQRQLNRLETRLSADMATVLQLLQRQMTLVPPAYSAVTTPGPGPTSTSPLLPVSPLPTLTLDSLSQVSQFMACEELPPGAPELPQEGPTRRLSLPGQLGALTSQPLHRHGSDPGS

Structure (SMILES): CC(C)(C)OC(=O)NCCCc1ccc(-c2cc(C(=O)O)cc(-n3cc(-c4ccc(C(F)(F)F)cc4)nn3)c2)cc1 [Compound 20, 4′-(3-((tert-Butoxycarbonyl)amino)propyl)-5-(4-(4-(trifluoromethyl)phenyl)-1H-1,2,3-triazol-1-yl)-[1,1′-biphenyl]-3-carboxylic acid]
- EC50 (hERG ion channel): 18 µM

Structure (SMILES): N[C@@H]1C[C@H](C(=O)O)[C@@H](c2ccc(-c3cc(C(=O)O)cc4cc(-c5ccc(C(F)(F)F)cc5)ccc34)cc2)C1 [Compound 138, 4-(4-((1S,2S,4S)-4-Amino-2-carboxycyclopentyl)phenyl)-7-(4-(trifluoromethyl)phenyl)-2-naphthoic acid]
- IC50 (hP2Y14R; [5]): 0.0496 ± 0.0135 µM
- IC50 (mP2Y14R; [6]): 40.9 ± 6.3 nM

Structure (SMILES): CN(C)C(=O)COC(=O)c1cc(-c2ccc(C3CCNCC3)cc2)cc(-n2cc(-c3ccc(C(F)(F)F)cc3)nn2)c1 [Compound 37a, 2-(Dimethylamino)-2-oxoethyl 4′-(piperidin-4-yl)-5-(4-(4-(trifluoromethyl)phenyl)-1H-1,2,3-triazol-1-yl)-[1,1′-biphenyl]-3-carboxylate]
- t1/2 (min, mean ± SEM) for esterase cleavage (PLE; pH 7.3, aqueous medium, PLE): most rapidly cleaved
- lymphocyte count in the BALF ([1]; i.p.): trended higher than in vehicle control

Structure (SMILES): CC(=O)N1CCC(c2ccc(-c3cc(C(=O)OCC(=O)N(C)C)cc4cc(-c5ccc(C(F)(F)F)cc5)ccc34)cc2)CC1 [Compound 37c, 2-(Dimethylamino)-2-oxoethyl 4-(4-(1-acetylpiperidin-4-yl)phenyl)-7-(4-(trifluoromethyl)phenyl)-2-naphthoate]
- Percent cleavage at 72 h (PLE): 27.2 ± 0.3%
- eosinophil counts in the BALF [1]: significantly reduced eosinophils to a greater extent than the parent antagonists

Structure (SMILES): N[C@H]1C[C@@H](CO)[C@H](c2ccc(-c3cc(C(=O)O)cc4cc(-c5ccc(C(F)(F)F)cc5)ccc34)cc2)C1 [Compound 135, 4-(4-((1R,2R,4R)-4-Amino-2-(hydroxymethyl)cyclopentyl)phenyl)-7-(4-(trifluoromethyl)phenyl)-2-naphthoic acid]
- IC50 (hP2Y14R; [7]): 0.0126 ± 0.0019 µM
- Solubility (ug/mL) pH 4 [2]: 4.97 ± 0.11 ug/mL
- Solubility (ug/mL) pH 7.4 [2]: 0.66 ± 0.02 ug/mL
- chromatographic logD [3]: 0.957 ± 0.046
- IC50 (hERG ion channel): > 30000 nM

Structure (SMILES): NCC#Cc1ccc(-c2cc(C(=O)O)cc(-n3cc(-c4ccc(C(F)(F)F)cc4)nn3)c2)cc1 [Compound 19, 4′-(3-Aminoprop-1-yn-1-yl)-5-(4-(4-(trifluoromethyl)phenyl)-1H-1,2,3-triazol-1-yl)-[1,1′-biphenyl]-3-carboxylic acid]
- IC50 (hP2Y14R; [8]): 0.308 ± 0.063 µM
- affinity at the mP2Y14R vs the human homologue (mP2Y14R): nearly the same affinity in the two species
- IC50 (mP2Y14R; [9]): 375 ± 175 nM

Structure (SMILES): O=C(O)c1cc(-c2ccc([C@]3(O)[C@@H]4CC[C@H]3CNC4)cc2)c2ccc(-c3ccc(C(F)(F)F)cc3)cc2c1 [Compound 131, 4-(4-((1R,5S,8r)-8-Hydroxy-3-azabicyclo[3.2.1]octan-8-yl)phenyl)-7-(4-(trifluoromethyl)phenyl)-2-naphthoic acid]
- IC50 (hP2Y14R): 0.0213 ± 0.0011 µM
- IC50 (mP2Y14R): 15.5 ± 3.3 nM
- solubility ([2]; pH 4, aqueous buffer): 2.32 ± 0.25 µg/mL (≈ 4.48 µM)
- solubility ([2]; pH 7.4, aqueous buffer): 0.54 ± 0.09 µg/mL (≈ 1.04 µM)
- chromatographic logD [3]: 1.2 ± 0.01
- IC50 (hERG ion channel): > 30000 nM

Structure (SMILES): CN(C)C(=O)COC(=O)c1cc(-c2ccc(-c3cc(CO)on3)cc2)c2ccc(-c3ccc(C(F)(F)F)cc3)cc2c1 [Compound 37b, 2-(Dimethylamino)-2-oxoethyl 4-(4-(5-(hydroxymethyl)isoxazol-3-yl)phenyl)-7-(4-(trifluoromethyl)phenyl)-2-naphthoate]
- Percent cleavage at 72 h (PLE): 32.6 ± 0.9%
- eosinophil counts in the BALF [1]: significantly reduced eosinophils to a greater extent than the parent antagonists

Structure (SMILES): NCCCNC(=O)c1ccc(-c2cc(C(=O)O)cc(-n3cc(-c4ccc(C(F)(F)F)cc4)nn3)c2)cc1 [Compound 14, 4′-((3-Aminopropyl)carbamoyl)-5-(4-(4-(trifluoromethyl)phenyl)-1H-1,2,3-triazol-1-yl)-[1,1′-biphenyl]-3-carboxylic acid]
- IC50 (hP2Y14R; [8]): 0.588 ± 0.043 µM
- reversal of mechano-allodynia (figure legend) [4]: reversal of established mechano-allodynia

Structure (SMILES): O=C(O)c1cc(-c2ccc([C@@H]3C[C@@H]4C[C@H]3CN4)cc2)c2ccc(-c3ccc(C(F)(F)F)cc3)cc2c1 [Compound 115, 4-(4-((1R,4R,5R)-2-Azabicyclo[2.2.1]heptan-5-yl)phenyl)-7-(4-(trifluoromethyl)phenyl)-2-naphthoic acid]
- IC50 (hP2Y14R; [7]): 0.00862 ± 0.00211 µM
- IC50 (hERG ion channel): > 30000 nM

Structure (SMILES): O=C(O)c1cc(-c2ccc([C@@H]3C[C@@H]4C[C@H]3C(=O)N4)cc2)c2ccc(-c3ccc(C(F)(F)F)cc3)cc2c1 [Compound 120, 4-(4-((1R,4R,5R)-3-Oxo-2-azabicyclo[2.2.1]heptan-5-yl)phenyl)-7-(4-(trifluoromethyl)phenyl)-2-naphthoic acid]
- IC50 (hP2Y14R; [5]): 0.0395 ± 0.0098 µM
- IC50 (mP2Y14R; [6]): 26.2 ± 10.7 nM
- Solubility (ug/mL) pH 4 [2]: 0.31 ± 0.14 ug/mL
- Solubility (ug/mL) pH 7.4 [2]: 3.42 ± 0.46 ug/mL
- EC50 (hERG ion channel; read-out: (EC50), μM for stimulation of hERG channel activity, patch clamp, Table 8): 18.1 µM

Structure (SMILES): O=C(O)c1cc(-c2ccc(-c3cc(CO)on3)cc2)cc(-n2cc(-c3ccc(C(F)(F)F)cc3)nn2)c1 [Compound 29, 4′-(5-(Hydroxymethyl)isoxazol-3-yl)-5-(4-(4-(trifluoromethyl)phenyl)-1H-1,2,3-triazol-1-yl)-[1,1′-biphenyl]-3-carboxylic acid]
- IC50 (hP2Y14R; Table 2, tracer 2 (20 nM, 45 min), CHO cells, read-out: hP2Y14R, IC50): 0.296 ± 0.013 µM
- affinity at the mP2Y14R vs the human homologue (mP2Y14R): slightly enhanced affinity
- IC50 (mP2Y14R; [9]): 184 ± 24 nM

Structure (SMILES): CC(=O)N1C[C@H]2C[C@@H]1C[C@@H]2c1ccc(-c2cc(C(=O)O)cc3cc(-c4ccc(C(F)(F)F)cc4)ccc23)cc1 [Compound 118, 4-(4-((1S,4S,5S)-2-Acetyl-2-azabicyclo[2.2.1]heptan-5-yl)phenyl)-7-(4-(trifluoromethyl)phenyl)-2-naphthoic acid]
- IC50 (hP2Y14R; [5]): 0.107 ± 0.013 µM
- IC50 (mP2Y14R; [6]): 102 ± 39 nM
- Solubility (ug/mL) pH 7.4 [2]: 1.86 ± 0.05 ug/mL
- chromatographic logD [3]: 0.921 ± 0.034

Structure (SMILES): O=C(O)c1cc(-c2ccc([C@@H]3C[C@H]4CN[C@@H]3C4)cc2)c2ccc(-c3ccc(C(F)(F)F)cc3)cc2c1 [Compound 116, 4-(4-((1R,4R,6S)-2-Azabicyclo[2.2.1]heptan-6-yl)phenyl)-7-(4-(trifluoromethyl)phenyl)-2-naphthoic acid]
- IC50 (hP2Y14R; [7]): 0.0098 ± 0.0003 µM
- Solubility (ug/mL) pH 4 [2]: 1.45 ± 0.05 ug/mL
- Solubility (ug/mL) pH 7.4 [2]: 0.40 ± 0.13 ug/mL
- chromatographic logD [3]: 2.11 ± 0.06
- IC50 (hERG ion channel): > 30000 nM

Structure (SMILES): N[C@@H]1C[C@H](CO)[C@@H](c2ccc(-c3cc(C(=O)O)cc4cc(-c5ccc(C(F)(F)F)cc5)ccc34)cc2)C1 [Compound 134, 4-(4-((1S,2S,4S)-4-Amino-2-(hydroxymethyl)cyclopentyl)phenyl)-7-(4-(trifluoromethyl)phenyl)-2-naphthoic acid]
- IC50 (hP2Y14R; [5]): 0.0108 ± 0.0021 µM
- IC50 (mP2Y14R; [6]): 17.9 ± 2.6 nM
- IC50 (hERG ion channel): > 30000 nM
